Measurements reported in ChEMBL document CHEMBL1201862, “PubChem BioAssay data set” (2004).
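Tested at 5 concentrations; 48 h exposure; 96-well plates; endpoints linearly interpolated, else capped at highest concentration. GI50 is the concentration that inhibits growth by half.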 The source made the active and inactive calls. Rule as the data show it: active = GI50 up to about 1.1 µM and inactive = higher.

Tests used:
Experiment in all cases: growth of human tumour cells (NCI), 48 h
HOP-92 = system: HOP-92
HCT-15 = system: HCT-15
HL-60 = system: HL-60
A498 = system: A498
SF-295 = system: SF-295
SK-OV-3 = system: SK-OV-3
OVCAR-8 = system: OVCAR-8
NCI-H226 = system: NCI-H226
EKVX = system: EKVX
T47D = system: T47D
HOP-62 = system: HOP-62
RXF 393 = system: RXF 393
786-0 = system: 786-0
K562 = system: K562
MOLT-4 = system: MOLT-4
OVCAR-3 = system: OVCAR-3
SW-620 = system: SW-620
CCRF-CEM = system: CCRF-CEM
M14 = system: M14
SF-539 = system: SF-539
HT-29 = system: HT-29
HCT-116 = system: HCT-116
NCI-H460 = system: NCI-H460
A549 = system: A549
KM12 = system: KM12
PC-3 = system: PC-3
COLO 205 = system: COLO 205
SN12C = system: SN12C
MDA-MB-435 = system: MDA-MB-435
UACC-257 = system: UACC-257
SK-MEL-28 = system: SK-MEL-28
U-251 = system: U-251
OVCAR-5 = system: OVCAR-5
ACHN = system: ACHN
UACC-62 = system: UACC-62
LOX IMVI = system: LOX IMVI
OVCAR-4 = system: OVCAR-4
SNB-19 = system: SNB-19
MDA-MB-231 = system: MDA-MB-231
Hs-578T = system: Hs-578T
BT-549 = system: BT-549
SR = system: SR
NCI-H522 = system: NCI-H522
UO-31 = system: UO-31
TK-10 = system: TK-10
NCI-H23 = system: NCI-H23
SF-268 = system: SF-268
SNB-75 = system: SNB-75
CAKI-1 = system: CAKI-1
DU-145 = system: DU-145
HCC 2998 = system: HCC 2998
Malme-3M = system: Malme-3M
RPMI-8226 = system: RPMI-8226
MCF7 = system: MCF7
IGROV-1 = system: IGROV-1
SK-MEL-5 = system: SK-MEL-5
NCI/ADR-RES = system: NCI/ADR-RES
SK-MEL-2 = system: SK-MEL-2

O=Cc1cc(O)c(O)c(/C=N/n2c3ccccc3c3ccccc32)c1
GI50 (HOP-92): 2.72 µM (inactive)
GI50 (HCT-15): 2.18 µM
GI50 (HL-60): 2.33 µM (inactive)
GI50 (A498): 15.9 µM (inactive)
GI50 (SF-295): 8.69 µM (inactive)
GI50 (SK-OV-3): 6.55 µM (inactive)
GI50 (OVCAR-8): 2.63 µM (inactive)
GI50 (NCI-H226): 12.6 µM (inactive)
GI50 (EKVX): 18.9 µM (inactive)
GI50 (T47D): 5.64 µM (inactive)
GI50 (HOP-62): 11.2 µM (inactive)
GI50 (RXF 393): 5.57 µM (inactive)
GI50 (786-0): 4.41 µM (inactive)
GI50 (K562): 4.11 µM (inactive)
GI50 (MOLT-4): 2.54 µM (inactive)
GI50 (OVCAR-3): 2.44 µM (inactive)
GI50 (SW-620): 5.15 µM (inactive)
GI50 (CCRF-CEM): 1.58 µM (inactive)
GI50 (M14): 6.1 µM (inactive)
GI50 (SF-539): 6.38 µM (inactive)
GI50 (HT-29): 18.7 µM (inactive)
GI50 (HCT-116): 3.37 µM (inactive)
GI50 (NCI-H460): 6.03 µM (inactive)
GI50 (A549): 12.8 µM (inactive)
GI50 (KM12): 7.76 µM (inactive)
GI50 (PC-3): 10.1 µM (inactive)
GI50 (COLO 205): 10.8 µM (inactive)
GI50 (SN12C): 4.56 µM (inactive)
GI50 (MDA-MB-435): 11.3 µM (inactive)
GI50 (UACC-257): 11.7 µM (inactive)
GI50 (SK-MEL-28): 12.9 µM (inactive)
GI50 (U-251): 6.14 µM (inactive)
GI50 (OVCAR-5): 17.9 µM (inactive)
GI50 (ACHN): 4.25 µM (inactive)
GI50 (UACC-62): 7.83 µM (inactive)
GI50 (LOX IMVI): 8.49 µM (inactive)
GI50 (OVCAR-4): 2.17 µM (inactive)
GI50 (SNB-19): 8.61 µM (inactive)
GI50 (MDA-MB-231): 7.1 µM (inactive)
GI50 (Hs-578T): 19.3 µM (inactive)
GI50 (BT-549): 2.31 µM (inactive)
GI50 (SR): 2.84 µM (inactive)
GI50 (NCI-H522): 2.64 µM (inactive)
GI50 (UO-31): 5.58 µM (inactive)
GI50 (TK-10): 13.4 µM (inactive)
GI50 (NCI-H23): 8.09 µM (inactive)
GI50 (SF-268): 3.98 µM (inactive)
GI50 (SNB-75): 2.65 µM (inactive)
GI50 (CAKI-1): 16.1 µM (inactive)
GI50 (DU-145): 11.4 µM (inactive)
GI50 (HCC 2998): 11.7 µM (inactive)
GI50 (Malme-3M): 12.4 µM (inactive)
GI50 (RPMI-8226): 2.05 µM (inactive)
GI50 (MCF7): 0.64 µM (active)

O=C(c1ccccc1)c1c2ccccn2c2cccc[n+]12
GI50 (IGROV-1): > 100 µM (inactive)
GI50 (HOP-92): > 100 µM (inactive)
GI50 (HCT-15): > 100 µM
GI50 (HL-60): 79.6 µM (inactive)
GI50 (A498): 71.8 µM (inactive)
GI50 (SK-MEL-5): 47 µM (inactive)
GI50 (SF-295): > 100 µM (inactive)
GI50 (SK-OV-3): > 100 µM (inactive)
GI50 (OVCAR-8): 88.5 µM (inactive)
GI50 (NCI-H226): > 100 µM (inactive)
GI50 (EKVX): > 100 µM (inactive)
GI50 (T47D): > 100 µM (inactive)
GI50 (HOP-62): > 100 µM (inactive)
GI50 (RXF 393): > 100 µM (inactive)
GI50 (786-0): > 100 µM (inactive)
GI50 (K562): > 100 µM (inactive)
GI50 (MOLT-4): > 100 µM (inactive)
GI50 (OVCAR-3): > 100 µM (inactive)
GI50 (SW-620): > 100 µM (inactive)
GI50 (CCRF-CEM): > 100 µM (inactive)
GI50 (M14): > 100 µM (inactive)
GI50 (SF-539): > 100 µM (inactive)
GI50 (HT-29): > 100 µM (inactive)
GI50 (HCT-116): > 100 µM (inactive)
GI50 (NCI-H460): > 100 µM (inactive)
GI50 (A549): 82.4 µM (inactive)
GI50 (KM12): > 100 µM (inactive)
GI50 (PC-3): > 100 µM (inactive)
GI50 (NCI/ADR-RES): > 100 µM (inactive)
GI50 (COLO 205): 20.1 µM (inactive)
GI50 (MDA-MB-435): > 100 µM (inactive)
GI50 (UACC-257): > 100 µM (inactive)
GI50 (SK-MEL-2): > 100 µM (inactive)
GI50 (SK-MEL-28): > 100 µM (inactive)
GI50 (U-251): > 100 µM (inactive)
GI50 (OVCAR-5): > 100 µM (inactive)
GI50 (UACC-62): > 100 µM (inactive)
GI50 (LOX IMVI): > 100 µM (inactive)
GI50 (OVCAR-4): > 100 µM (inactive)
GI50 (MDA-MB-231): > 100 µM (inactive)
GI50 (Hs-578T): > 100 µM (inactive)
GI50 (BT-549): > 100 µM (inactive)
GI50 (SR): > 100 µM (inactive)
GI50 (TK-10): > 100 µM (inactive)
GI50 (SF-268): > 100 µM (inactive)
GI50 (SNB-75): > 100 µM (inactive)
GI50 (CAKI-1): > 100 µM (inactive)
GI50 (DU-145): > 100 µM (inactive)
GI50 (HCC 2998): > 100 µM (inactive)
GI50 (Malme-3M): > 100 µM (inactive)
GI50 (RPMI-8226): > 100 µM (inactive)
GI50 (MCF7): > 100 µM (inactive)
